From BindingDB's records for doi:10.1002/cbic.201200316 (Moffitt Cancer Center, 2012)

These compounds were tested against Cyclin-dependent kinase 2 (Homo sapiens, UniProt P24941) (assay: Inhibition Assay).
Protocol: The inhibitory against activated CDK2-cyclin A2 complex was determined by using the ADP Quest fluorescence assay from (DiscoveRX, Fremont, CA)

Compound	IC50
Cc1ccc(N=Nc2c(O)ccc3nn[nH]c23)cc1	> 150 µM
O=C1c2ccccc2C(=O)C1c1ccccn1	46 µM
Nc1ccc2c(c1Cl)C(=O)c1ccc(N)c(Cl)c1C2=O [2,6-bis(azanyl)-1,5-bis(chloranyl)anthracene-9,10-dione]	> 150 µM
O=c1cc(-c2ccc(O)cc2)oc2c(O)c(O)c(O)c(O)c12 [2-(4-hydroxyphenyl)-5,6,7,8-tetrakis(oxidanyl)chromen-4-one]	> 150 µM
Oc1ccc(/N=C/c2c(O)ccc3ccccc23)cc1 [Hit compound, 3]	> 150 µM
O=c1[nH]c(O)ccc1N=Nc1ccc(S(=O)(=O)O)cc1 [Hit compound, 4]	45 µM
COCc1cc(/N=N/c2cccc(S(N)(=O)=O)c2)c2ccccc2c1N [Hit compound, 5]	53 µM
Cc1ccc(/N=N/c2ccc(N)cc2C)c(S(N)(=O)=O)c1 [Hit compound, 7]	> 150 µM
Nc1cc([N+](=O)[O-])ccc1Nc1ccc(O)cc1 [Hit compound, 12]	> 150 µM
